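Five compound concentrations were applied to cells in 96-well plates for 48 hours; endpoints were derived by simple linear interpolation of the resulting dose-response curve. Here, GI50 denotes the concentration required for 50% inhibition of growth. TGI denotes the concentration required for complete inhibition of growth.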
What was measured:
Assay in all cases: NCI tumour cell line growth inhibition, 48 h
COLO 205 colon = system: COLO 205 colon
HT29 colon = system: HT29 colon
HCT-15 colon = system: HCT-15 colon
BT-549 breast = system: BT-549 breast
SK-MEL-28 melanoma = system: SK-MEL-28 melanoma
SK-MEL-5 melanoma = system: SK-MEL-5 melanoma
T-47D breast = system: T-47D breast
RPMI-8226 leukemia = system: RPMI-8226 leukemia
MDA-MB-435 = system: MDA-MB-435
HOP-62 NSCLC = system: HOP-62 NSCLC
NCI-H522 lung = system: NCI-H522 lung
SR leukemia = system: SR leukemia
MALME-3M melanoma = system: MALME-3M melanoma
UO-31 renal = system: UO-31 renal
MDA-MB-231 breast = system: MDA-MB-231 breast
TK-10 renal = system: TK-10 renal
HS 578T breast = system: HS 578T breast
IGROV1 ovarian = system: IGROV1 ovarian
HCC-2998 colon = system: HCC-2998 colon
SW-620 colon = system: SW-620 colon
PC-3 prostate = system: PC-3 prostate
UACC-62 melanoma = system: UACC-62 melanoma
A549 NSCLC = system: A549 NSCLC
NCI-H460 lung = system: NCI-H460 lung
HL-60(TB) leukemia = system: HL-60(TB) leukemia
CAKI-1 renal = system: CAKI-1 renal
OVCAR-8 ovarian = system: OVCAR-8 ovarian
EKVX NSCLC = system: EKVX NSCLC
LOX IMVI melanoma = system: LOX IMVI melanoma
A498 renal = system: A498 renal
SK-OV-3 ovarian = system: SK-OV-3 ovarian
SF-268 CNS = system: SF-268 CNS
M14 melanoma = system: M14 melanoma
RXF 393 renal = system: RXF 393 renal
SNB-75 CNS = system: SNB-75 CNS
OVCAR-4 ovarian = system: OVCAR-4 ovarian
SNB-19 CNS = system: SNB-19 CNS
DU-145 prostate = system: DU-145 prostate
HOP-92 NSCLC = system: HOP-92 NSCLC
NCI/ADR-RES ovarian = system: NCI/ADR-RES ovarian
MOLT-4 leukemia = system: MOLT-4 leukemia
SF-539 CNS = system: SF-539 CNS
UACC-257 melanoma = system: UACC-257 melanoma
SK-MEL-2 melanoma = system: SK-MEL-2 melanoma
NCI-H226 lung = system: NCI-H226 lung
K-562 leukemia = system: K-562 leukemia
CCRF-CEM leukemia = system: CCRF-CEM leukemia
SN12C renal = system: SN12C renal
U251 CNS = system: U251 CNS
ACHN renal = system: ACHN renal
786-0 renal = system: 786-0 renal
OVCAR-5 ovarian = system: OVCAR-5 ovarian
SF-295 CNS = system: SF-295 CNS
HCT-116 colon = system: HCT-116 colon
OVCAR-3 ovarian = system: OVCAR-3 ovarian
NCI-H23 lung = system: NCI-H23 lung
MCF7 breast = system: MCF7 breast
KM12 colon = system: KM12 colon

## COc1ccc2c(c1)c(-c1nc(-c3cn(C)c4ncccc34)cs1)cn2CCCCN1CCOCC1
COLO 205 colon
  GI50: 1.69 µM
  TGI: 3.56 µM
HT29 colon
  GI50: 0.766 µM
  TGI: 1.95 µM
HCT-15 colon
  GI50: 0.627 µM
  TGI: 1.47 µM
BT-549 breast
  GI50: 2.3 µM
  TGI: 10.7 µM
SK-MEL-28 melanoma
  GI50: 1.5 µM
  TGI: 2.97 µM
SK-MEL-5 melanoma
  GI50: 1.67 µM
  TGI: 3.06 µM
T-47D breast
  GI50: 7.08 µM
  TGI: 29 µM
RPMI-8226 leukemia
  GI50: 1.25 µM
  TGI: 3.89 µM
MDA-MB-435
  GI50: 1.12 µM
  TGI: 2.58 µM
HOP-62 NSCLC
  GI50: 1.76 µM
  TGI: 3.64 µM
NCI-H522 lung
  GI50: 1.77 µM
  TGI: 3.81 µM
SR leukemia
  GI50: 0.724 µM
  TGI: 1.98 µM
MALME-3M melanoma
  GI50: 1.65 µM
  TGI: 3.41 µM
UO-31 renal
  GI50: 1.2 µM
  TGI: 2.56 µM
MDA-MB-231 breast
  GI50: 0.941 µM
  TGI: 2.49 µM
TK-10 renal
  GI50: 2.73 µM
  TGI: 8.19 µM
HS 578T breast
  GI50: 1.22 µM
  TGI: 5.46 µM
IGROV1 ovarian
  GI50: 2.66 µM
  TGI: 10.4 µM
HCC-2998 colon
  GI50: 1.73 µM
  TGI: 3.77 µM
SW-620 colon
  GI50: 0.745 µM
  TGI: 1.92 µM
PC-3 prostate
  GI50: 1.12 µM
  TGI: 3.26 µM
UACC-62 melanoma
  GI50: 1.62 µM
  TGI: 3.44 µM
A549 NSCLC
  GI50: 1.71 µM
  TGI: 3.71 µM
NCI-H460 lung
  GI50: 1.19 µM
  TGI: 2.91 µM
HL-60(TB) leukemia
  GI50: 1.84 µM
  TGI: 4.37 µM
CAKI-1 renal
  GI50: 1.39 µM
  TGI: 2.89 µM
OVCAR-8 ovarian
  GI50: 2.3 µM
  TGI: 5.43 µM
EKVX NSCLC
  GI50: 1.54 µM
  TGI: 4.77 µM
LOX IMVI melanoma
  GI50: 1.32 µM
  TGI: 2.68 µM
A498 renal
  GI50: 0.164 µM
  TGI: 1.78 µM
SK-OV-3 ovarian
  GI50: 4.22 µM
  TGI: 15.2 µM
SF-268 CNS
  GI50: 1.49 µM
  TGI: 3.3 µM
M14 melanoma
  GI50: 0.606 µM
  TGI: 1.28 µM
RXF 393 renal
  GI50: 1.2 µM
  TGI: 2.65 µM
SNB-75 CNS
  GI50: 0.873 µM
  TGI: 2.67 µM
OVCAR-4 ovarian
  GI50: 1.71 µM
  TGI: 4.94 µM
SNB-19 CNS
  GI50: 1.65 µM
  TGI: 3.49 µM
DU-145 prostate
  GI50: 1.71 µM
  TGI: 5.05 µM
HOP-92 NSCLC
  GI50: 0.922 µM
  TGI: 3.59 µM
NCI/ADR-RES ovarian
  GI50: 1.72 µM
  TGI: 5.05 µM
MOLT-4 leukemia
  GI50: 0.951 µM
  TGI: 2.8 µM
SF-539 CNS
  GI50: 1.56 µM
  TGI: 3.02 µM
UACC-257 melanoma
  GI50: 1.66 µM
  TGI: 3.28 µM
SK-MEL-2 melanoma
  GI50: 2.05 µM
  TGI: 4.29 µM
NCI-H226 lung
  GI50: 2.53 µM
  TGI: 8.81 µM
K-562 leukemia
  GI50: 0.675 µM
  TGI: 1.61 µM
CCRF-CEM leukemia
  GI50: 1.02 µM
  TGI: 3.23 µM
SN12C renal
  GI50: 3.28 µM
  TGI: 9.22 µM
U251 CNS
  GI50: 1.25 µM
  TGI: 2.93 µM
ACHN renal
  GI50: 1.59 µM
  TGI: 2.99 µM
786-0 renal
  GI50: 1.57 µM
  TGI: 3.44 µM
OVCAR-5 ovarian
  GI50: 1.68 µM
  TGI: 4.03 µM
SF-295 CNS
  GI50: 1.57 µM
  TGI: 3.48 µM
HCT-116 colon
  GI50: 1.8 µM
  TGI: 3.91 µM
OVCAR-3 ovarian
  GI50: 1.62 µM
  TGI: 3.38 µM
NCI-H23 lung
  GI50: 2.02 µM
  TGI: 5.58 µM
MCF7 breast
  GI50: 1.71 µM
  TGI: 3.67 µM
KM12 colon
  GI50: 1.42 µM
  TGI: 3.09 µM

Reference: PubChem BioAssay (NCI)
